Key:
Hpr6 = test: Induction of Hpr6 expression by drugs, western blot; assay type: cell-based, human
Text: 1A: western blot analysis showing expression of Hpr6 (top panel) and tubulin (bottom panel) in the cell lines BT549 (lane 1), MCF-7 (lane 2), HCT-100 (lane 3), MDA-MB-231 (lane 4), MDA-MB-435 (lane 5), and HeLa (lane 6). […] The position of molecular weight markers is indicated to the left. […] MDA-MB-231 cells were untreated (upper panel, lane 1), treated with 0.5 or μM doxorubicin (upper panel, lanes 2 and 3), or 0.25 1 μm camptothecin (upper panel, lane 4) for 3 days, and the expression of Hpr6 was analyzed by western blot.
Drug treatment, viability assays, and immunological analyses. Doxorubicin (Sigma, St. Louis, Mo.) was added to culture media and incubated for five days. Cells were incubated with hydrogen peroxide (Fisher), mechlorethamine (kindly provided by Dr. Robert Orlowski, University of North Carolina at Chapel Hill) or camptothecin (Sigma) for 72 hours. Trypan blue and MTT assays were performed using standard techniques as previously described (Hand et al. Journal of Cellular Biochemistry 2003; 90: 534-47). Western blots of cultured cells and tumors were performed as described previously (Hand et al. Journal of Cellular Biochemistry 2003; 90: 534-47; Yang et al. Tumor Biology 2003; 24: 61-9). The antibodies used were as follows: anti-HA (HAll, BAbCo, Berkeley, Calif.), tubulin (Fisher), and Hpr6 (Meyer et al. Steroids 1998; 63: 111-6). Cells were visualized using a VistaVision inverted microscope attached to a Sony DCS F717 digital camera (VWR, Batavia, Ill.). For immunofluorescence, MCF-7/vector and MCF-7/Hpr6 cells (Hand et al. Journal of Cellular Biochemistry 2003; 90: 534-47) were fixed with 3.7% formaldehyde, permeabilized with 0.1% Triton X-100, blocked with 10% normal goat serum, and incubated with the HAll monoclonal antibody. Cells were then washed, incubated with a FITC-Iabeled anti-mouse secondary antibody (Santa Cruz Biotechnology, Santa Cruz, Calif.), washed, mounted, and visualized using a Zeiss fluorescent microscope.
The effect of the Ad-Hpr6-mut adenovirus in response to chemotherapy was analyzed for two reasons. First, the budding yeast homologue of Hpr6 controls resistance to damaging agents.

[1] = Heme binding of purified Hpr6 proteins by absorbance at 400 nm; settings: purified protein liberated from GST fusion, triplicate
Procedure: FIG. 2. […] 2A: Purification of GST-Hpr6 (lane 1) and GST-Hpr6-mut (lane 2) fusion proteins. Proteins were purified using glutathione-agarose and analyzed by SDS-PAGE electrophoresis. 2B: Heme binding by Hpr6 (left column) but not Hpr6-mut (right column). Solubilized proteins were analyzed for absorbance at 400 nm, and measurements were performed in triplicate. 2C: western blot analysis of MDA-MB-231 cells infected with 500, 1000, or 2000 pfu/cell of Ad-Hpr6-mut (lanes 1-3) or 2000 pfu/cell of Ad-LacZ (lane 4). Hpr6 expression was visualized with an antibody to the HA epitope tag. D. The Hpr6-mut protein is overexpressed compared to endogenous Hpr6 following Ad-Hpr6-mut infection. MDA-MB 231 cells were infected with Ad-LacZ (lane 1) or Ad-Hpr6-mut (lane 2) and analyzed by western blots probed for HA (top panel), Hpr6 (middle panel), or tubulin (bottom panel). The positions of the exogenous Hpr6-mut and endogenous Hpr6 protein are indicated in the center panel (top and bottom, respectively).
Fusion protein plasmids, preparation, and analysis. Hpr6-GST fusion proteins contained amino acids 43-195 of the Hpr6 open reading frame. […]
Hpr6 binds to heme, and the D120G mutation in the heme-1 domain blocks heme-binding activity. […] The measurement was performed in triplicate, and the difference between Hpr6 and Hpr6-D120G absorbance was statistically significant (P=0.03). […]

heme binding (absorbance at 400 nm) [1]	Compound	induction of Hpr6 expression (Hpr6; MCF-7 cells, data not shown)	induction of Hpr6 expression (Hpr6; MDA-MB-231 cells, western blot)
–	CC[C@@]1(O)C(=O)OCc2c1cc1n(c2=O)Cc2cc3ccccc3nc2-1 [camptothecin]	induced	induced
–	N.N.[Cl][Pt][Cl] [cisplatinum]	–	not induced
–	COc1cccc2c1C(=O)c1c(O)c3c(c(O)c1C2=O)C[C@@](O)(C(=O)CO)C[C@@H]3O[C@H]1C[C@H](N)[C@H](O)[C@H](C)O1 [doxorubicin]	induced	induced
–	OO [hydrogen peroxide]	–	not induced
absent	Hpr6-D120G: mutant Hpr6 polypeptide, SEQ ID NO:1, aspartic acid 120 in heme binding region mutated to glycine; inactive form	–	–
bound efficiently to heme	Hpr6: wild-type human heme-1 domain protein Hpr6	–	–

From patent US7342100B2, “Hpr6 mutants and uses thereof” (University of Kentucky Research Foundation, priority 2004, dated 2008)
